Like-named read-outs stand apart in the source and are kept apart here. Marks after values point to notes of the source that are not given here. Residues, ends and D or L forms follow the SMILES beside them. *: point of attachment. X1 = O=C(c1ccc(C2(C(F)(F)F)N=N2)cc1)*
Assays:
[1] = biological target: T1, mCRFR2β (Mus musculus, UniProt Q60748); test: cAMP stimulation / inhibition of Svg-stimulated cAMP production in HEK-mCRFR2β cells; assay type: cell-based; set-up: Emax: dose or concentration left out as unconfirmed; details: for mCRFR2β relative in vitro potency: Table 2, Svg alone = 1.00 (lower = stronger inhibition); for mCRFR2β relative in vitro potency / HEK-mCRFR2β cells rel. pot. (relative potency): 10 nM antagonist, cAMP production stimulated by 1 nM Svg; for HEK-mCRFR2β cells rel. pot. (relative potency): Table 4, Svg alone = 1.00
T1 construct: expressed in transfected cells; host or cells: HEK 293 cells, stably transfected (HEK-mCRFR2β); membrane homogenates
Method: (§1) HEK-rCRFR1 cells or HEK-mCRFR2β cells were incubated with different CRF agonists in the presence or absence of 1 μM or 10 nM antagonist, or CRF antagonist (c=1 μM) alone. After removal of the medium, cells were lyzed with aqueous 6% trichloroacetic acid (5 min, 100° C.) (Rühmann, A., A. K. E. Köpke, F. M. Dautzenberg, and J. Spiess, Proc. Natl. Acad. Sci. USA 93: 10609-10613, 1996). The cell lysates were stored at −70° C. until assayed with a RIA kit (Amersham, Little Chalfont). […] Statistical significance was determined across groups with ANOVA, and significant differences between groups were determined by post hoc comparison using the Dunn test.
(§2) Intrinsic activities were measured at peptide concentrations generating maximal formation of cAMP in HEK-rCRFR1 or HEK-mCRFR2β cells.
Target sequence in this assay (Q60748 1-431 isoform Q60748-2): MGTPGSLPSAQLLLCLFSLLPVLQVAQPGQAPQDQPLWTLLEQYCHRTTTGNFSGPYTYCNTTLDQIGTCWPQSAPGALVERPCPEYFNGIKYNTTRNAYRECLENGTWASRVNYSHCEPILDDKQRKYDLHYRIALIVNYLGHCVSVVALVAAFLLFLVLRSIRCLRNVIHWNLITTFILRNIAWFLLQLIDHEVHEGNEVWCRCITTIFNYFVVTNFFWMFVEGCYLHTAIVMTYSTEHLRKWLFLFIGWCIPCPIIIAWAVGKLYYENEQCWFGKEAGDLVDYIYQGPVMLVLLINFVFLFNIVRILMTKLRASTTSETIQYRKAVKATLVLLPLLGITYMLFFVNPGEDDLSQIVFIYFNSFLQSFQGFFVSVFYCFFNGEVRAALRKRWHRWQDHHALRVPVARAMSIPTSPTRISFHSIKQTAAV

[2] = biological target: T2, rCRFR1 (Rattus norvegicus, UniProt P35353); test: cAMP stimulation / inhibition of oCRF-stimulated cAMP production in HEK-rCRFR1 cells; assay type: cell-based; details: for rCRFR1 relative in vitro potency: Table 2, oCRF alone = 1.00 (lower = stronger inhibition); for rCRFR1 relative in vitro potency / HEK-rCRFR1 cells rel. pot. (relative potency): 1 μM antagonist, cAMP production stimulated by 1 nM oCRF; for HEK-rCRFR1 cells rel. pot. (relative potency): Table 4, oCRF alone = 1.00; for Emax: read-out: HEK-rCRFR1 cells rel. IA (relative intrinsic activity)
T2 construct: expressed in transfected cells; host or cells: HEK 293 cells, stably transfected (HEK-rCRFR1)
T2 sequence (P35353 24-415): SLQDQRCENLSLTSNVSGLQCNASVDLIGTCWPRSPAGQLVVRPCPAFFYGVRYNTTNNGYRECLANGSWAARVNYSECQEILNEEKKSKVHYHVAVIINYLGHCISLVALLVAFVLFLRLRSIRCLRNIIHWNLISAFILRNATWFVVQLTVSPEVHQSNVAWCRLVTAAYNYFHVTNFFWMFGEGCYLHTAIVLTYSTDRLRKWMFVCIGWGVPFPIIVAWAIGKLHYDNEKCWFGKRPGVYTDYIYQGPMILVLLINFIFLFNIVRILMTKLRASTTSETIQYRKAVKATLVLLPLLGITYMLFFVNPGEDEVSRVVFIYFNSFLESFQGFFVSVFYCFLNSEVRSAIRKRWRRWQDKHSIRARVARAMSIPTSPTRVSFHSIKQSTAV
Method: as §1, §2

[3] = biological target: T1, mCRFR2β; test: Displacement of [^125I-Tyr^0]Svg from membranes of HEK-mCRFR2β cells; assay type: binding; details: for Selectivity: Kd(rCRFR1)(peptide)/Kd(rCRFR1)(astressin) × Kd(mCRFR2β)(astressin)/Kd(mCRFR2β)(peptide)
Method: Binding assays were performed in 96-well MultiScreen plates (Millipore, Eschborn, Germany) with GF/B filters (pore size 1.0 μm). […] After incubation (60 min, 23° C.), membrane suspension was aspirated through the plate, followed by two washes with assay buffer (0.2 ml, 23°). Radioactivity of the punched filters was measured with a 1470 WIZARD automatic gamma counter (Berthold, Hannover). […] Statistical analysis was performed with ANOVA, and significant differences between groups were determined by post hoc comparison using the Dunn test.
Membrane homogenates of human embryonic kidney (HEK) 293 cells stably transfected with cDNA coding for rat CRF receptor, type 1 (rCRFR1) or mouse CRF receptor, type 2β (mCRFR2β) were prepared according to standard protocols (see, e.g., Sambrook et al., Molecular Cloning: A Laboratory Manual, 2nd. Edition, Cold Spring Habor Laboratory Press, Cold Spring Habor, N.Y., 1989; Ausubel et al., Current Protocols in Molecular Biology, Green Publishing Associates and Wiley Interscience, NY, 1989).

[4] = read-out: HEK-mCRFR2β cells rel. IA (relative intrinsic activity)

## cyclo(29-32)[DPhe^11, Glu^29, Lys^32]rUcn(11-40) [compound 10]
[1]
  mCRFR2β relative in vitro potency: 0.89 ± 0.01
[2]
  rCRFR1 relative in vitro potency: 0.78 ± 0.10
[3]; Table 1
  Selectivity: 1.48

## CC[C@H](C)[C@H](NC(=O)[C@@H](NC(=O)[C@H](CC(=O)O)NC(=O)[C@H](CC(C)C)NC(=O)[C@H](CC(C)C)NC(=O)[C@H](CC(C)C)NC(=O)[C@H](CCCNC(=N)N)NC(=O)[C@H](CC(N)=O)NC(=O)[C@H](CC(N)=O)NC(=O)[C@H](C)NC(=O)[C@H](C)NC(=O)[C@H](CCC(N)=O)NC(=O)[C@H](CCC(N)=O)NC(=O)[C@H](CCCCN)NC(=O)[C@H](CCC(=O)O)NC(=O)[C@H](CCCCN)NC(=O)[C@H](CCC(=O)O)NC(=O)[C@H](CCC(N)=O)NC(=O)[C@H](CCCCN)NC(=O)[C@H](CCC(=O)O)NC(=O)[C@@H](NC(=O)[C@H](CCC(=O)O)NC(=O)[C@@H](NC(=O)[C@H](CCSC)NC(=O)[C@H](CCCCN)NC(=O)[C@H](CCCNC(=N)N)NC(=O)[C@H](CC(C)C)NC(=O)[C@H](CC(C)C)NC(=O)[C@H](Cc1c[nH]cn1)NC(=O)c1ccc(C2(C(F)(F)F)N=N2)cc1)[C@@H](C)CC)[C@@H](C)CC)[C@@H](C)O)C(N)=O [compound 17, ATB-[His^12]Svg(12-40)] (X1-HLLRKMIEIEKQEKEKQQAANNRLLLDTI-NH2)
[1]
  HEK-mCRFR2β cells rel. pot. (relative potency): 0.48 ± 0.04
[1]; [4]
  Emax: 0.7 ± 0.2%
[2]
  HEK-rCRFR1 cells rel. pot. (relative potency): 0.54 ± 0.06
  Emax: 15 ± 1%
[3]
  Kd: 3.1 ± 0.2 nM
[3]; Table 3
  Selectivity: 32.26

## [DPhe^12]oCRF(12-41) [compound 6]
[1]
  mCRFR2β relative in vitro potency: 0.92 ± 0.07^k
[2]
  rCRFR1 relative in vitro potency: 0.89 ± 0.07
[3]; Table 1
  Selectivity: 1.32

## α-helical CRF(9-41) [compound 4, reference compound]
[1]
  mCRFR2β relative in vitro potency: 0.67 ± 0.02
[2]
  rCRFR1 relative in vitro potency: 0.58 ± 0.05
[3]; Table 1
  Selectivity: 6.61

## [DPhe^12, Nle^21,38]h/rCRF(12-41) [compound 5, reference compound]
[1]
  mCRFR2β relative in vitro potency: 0.87 ± 0.08^i
[2]
  rCRFR1 relative in vitro potency: 0.33 ± 0.08^h,i
[3]; Table 1
  Selectivity: 1.84

## [DLeu^11, Glu^12]rUcn(11-40) [compound 9]
[1]
  mCRFR2β relative in vitro potency: 0.81 ± 0.06
[2]
  rCRFR1 relative in vitro potency: 0.56 ± 0.05
[3]; Table 1
  Selectivity: 2.29

## [DPhe^11]rUcn(11-40) [compound 7]
[1]
  mCRFR2β relative in vitro potency: 0.57 ± 0.06
[2]
  rCRFR1 relative in vitro potency: 0.18 ± 0.03^g
[3]; Table 1
  Selectivity: 4.45

## CC[C@H](C)[C@H](NC(=O)[C@@H](NC(=O)[C@H](CC(=O)O)NC(=O)[C@H](CC(C)C)NC(=O)[C@H](CC(C)C)NC(=O)[C@H](CC(C)C)NC(=O)[C@H](CCCNC(=N)N)NC(=O)[C@H](CC(N)=O)NC(=O)[C@H](CC(N)=O)NC(=O)[C@H](C)NC(=O)[C@H](C)NC(=O)[C@H](CCC(N)=O)NC(=O)[C@H](CCC(N)=O)NC(=O)[C@H](CCCCN)NC(=O)[C@H](CCC(=O)O)NC(=O)[C@H](CCCCN)NC(=O)[C@H](CCC(=O)O)NC(=O)[C@H](CCC(N)=O)NC(=O)[C@H](CCCCN)NC(=O)[C@H](CCC(=O)O)NC(=O)[C@@H](NC(=O)[C@H](CCC(=O)O)NC(=O)[C@@H](NC(=O)[C@H](CCSC)NC(=O)[C@H](CCCCN)NC(=O)[C@H](CCCNC(=N)N)NC(=O)[C@H](CC(C)C)NC(=O)[C@H](CC(C)C)NC(=O)[C@H](Cc1c[nH]cn1)NC(=O)[C@@H](N)Cc1ccc(O)cc1)[C@@H](C)CC)[C@@H](C)CC)[C@@H](C)O)C(N)=O [compound 18, [Tyr^11, His^12]Svg(11-40)] (H-YHLLRKMIEIEKQEKEKQQAANNRLLLDTI-NH2; N-terminus assumed)
[1]
  HEK-mCRFR2β cells rel. pot. (relative potency): 0.37 ± 0.05
[1]; [4]
  Emax: 0.8 ± 0.2%
[2]
  HEK-rCRFR1 cells rel. pot. (relative potency): 0.79 ± 0.07
  Emax: 3 ± 1%
[3]
  Kd: 4.9 ± 1.8 nM
[3]; Table 3
  Selectivity: 31.64

## CC[C@H](C)[C@H](NC(=O)[C@@H](NC(=O)[C@H](CC(=O)O)NC(=O)[C@H](CC(C)C)NC(=O)[C@H](CC(C)C)NC(=O)[C@H](CC(C)C)NC(=O)[C@H](CCCNC(=N)N)NC(=O)[C@H](CC(N)=O)NC(=O)[C@H](CC(N)=O)NC(=O)[C@H](C)NC(=O)[C@H](C)NC(=O)[C@H](CCC(N)=O)NC(=O)[C@H](CCC(N)=O)NC(=O)[C@H](CCCCN)NC(=O)[C@H](CCC(=O)O)NC(=O)[C@H](CCCCN)NC(=O)[C@H](CCC(=O)O)NC(=O)[C@H](CCC(N)=O)NC(=O)[C@H](CCCCN)NC(=O)[C@H](CCC(=O)O)NC(=O)[C@@H](NC(=O)[C@H](CCC(=O)O)NC(=O)[C@@H](NC(=O)[C@H](CCSC)NC(=O)[C@H](CCCCN)NC(=O)[C@H](CCCNC(=N)N)NC(=O)[C@H](CC(C)C)NC(=O)[C@H](CC(C)C)NC(=O)[C@H](CCC(=O)O)NC(=O)[C@@H](N)Cc1ccc(O)cc1)[C@@H](C)CC)[C@@H](C)CC)[C@@H](C)O)C(N)=O [compound 19, [Tyr^11]Svg(11-40)]
[1]
  HEK-mCRFR2β cells rel. pot. (relative potency): 0.67 ± 0.04
[1]; [4]
  Emax: 0.7 ± 0.2%
[2]
  HEK-rCRFR1 cells rel. pot. (relative potency): 0.82 ± 0.06
  Emax: 9 ± 1%
[3]
  Kd: 20.8 ± 1.6 nM
[3]; Table 3
  Selectivity: 32.97

## CC[C@H](C)[C@H](NC(=O)[C@@H](NC(=O)[C@H](CC(=O)O)NC(=O)[C@H](CC(C)C)NC(=O)[C@H](CC(C)C)NC(=O)[C@H](CC(C)C)NC(=O)[C@H](CCCNC(=N)N)NC(=O)[C@H](CC(N)=O)NC(=O)[C@H](CC(N)=O)NC(=O)[C@H](C)NC(=O)[C@H](C)NC(=O)[C@H](CCC(N)=O)NC(=O)[C@H](CCC(N)=O)NC(=O)[C@H](CCCCN)NC(=O)[C@H](CCC(=O)O)NC(=O)[C@H](CCCCN)NC(=O)[C@H](CCC(=O)O)NC(=O)[C@H](CCC(N)=O)NC(=O)[C@H](CCCCN)NC(=O)[C@H](CCC(=O)O)NC(=O)[C@@H](NC(=O)[C@H](CCC(=O)O)NC(=O)[C@@H](NC(=O)[C@H](CCSC)NC(=O)[C@H](CCCCN)NC(=O)[C@H](CCCNC(=N)N)NC(=O)[C@H](CC(C)C)NC(=O)[C@H](CC(C)C)NC(=O)[C@H](CCC(=O)O)NC(=O)[C@H](CC(C)C)NC(=O)[C@H](CO)NC(=O)[C@H](CC(C)C)NC(=O)[C@H](CC(=O)O)NC(=O)[C@@H](NC(=O)[C@H](CO)NC(=O)[C@@H](NC(=O)[C@@H]1CCCN1C(=O)[C@@H]1CCCN1C(=O)CNC(=O)[C@@H]1CCC(=O)N1)[C@@H](C)CC)[C@@H](C)CC)[C@@H](C)CC)[C@@H](C)CC)[C@@H](C)O)C(N)=O [compound 2, Svg, reference compound]
[1]
  mCRFR2β relative in vitro potency: 1.00
  HEK-mCRFR2β cells rel. pot. (relative potency): 1.00
[1]; [4]
  Emax: 100%
[1]; read-out: mCRFR2β % IA (intrinsic activity)
  Emax: 100%
[3]; Table 1
  Selectivity: 0.109
[3]; Table 3
  Selectivity: 0.109

Reference: patent publication US6846803B1, “Antagonists specific for the corticotropin-releasing factor receptor type 2 (CRFR2)” (priority 1998, dated 2005)
